One compound from patent publication US9682060B2, “Small molecules that induce intrinsic pathway apoptosis” (The Board of Trustees of the University of Illinois, priority 2015, dated 2017) can be followed below.

“Also recorded” adds a separate entry of the source.

One data set concerns B16-F10 melanoma. The data set can be described thus: Syngeneic subcutaneous tumor model. The note with it: 20 mg/kg IP once daily for 3 days. In kind it is in vivo, C57BL/6 mice. Here is the method:
(§1) All animal studies were performed with prior approval by the University of Illinois at Urbana-Champaign IACUC committee. […]. Seven days (for B16-F10) and six days (for 4T1) after inoculation, the mice were randomized based upon tumor size with 7 mice per group. Vehicle or compound was administered intraperitoneally as a corn oil DMSO suspension (300 μL of 10% DMSO in trans fat-free corn oil, 20 mg/kg) once daily for 3 consecutive days for B16-F10 and 4 consecutive days for 4T1 models. Tumor measurements were performed every other day using a caliper and tumor volume was calculated using the equation (0.5×l×w^2).

The subject of a further data set is 3T3. Put plainly: Raptinal toxicity, 24 hour IC50 (sulforhodamine B assay for adherent cells). In kind it is cell-based. Conditions: NIH3T3; 3T3 (Mouse Embryonic Fibroblasts); 24 hour incubation; mean ± SD. As to the method:
(§2) Sulforhodamine B Assay for Adherent Cells.
(§3) Serial dilutions of compound in 100% DMSO were added in triplicate (2 μL to each well) to empty wells of a 96-well plate. Adherent cells (3T3, Hs888Lu, MCF-7, HeLa, WT-MEF, 4T1, B16-F10, SK-MEL-5, MIA PaCa2, BT-549, MDA-MB-436, 143B, HOS, H460, H1993) cells were added to each well (5×10^3 cells in 198 μL of RPMI 1640, DMEM or EMEM media). The plates were incubated for 24 hours. The media was removed from the plate and ice-cold trichloroacetic acid (100 μL of 10% w/v trichloroacetic acid) was added to the plates which were then incubated at 4° C. overnight to fix the cells. The trichloroacetic acid was removed and the wells washed with 200 μL of de-ionized water 5 times. Sulforhodamine B (200 μL of 0.04% sodium salt dissolved in 1% acetic acid) was added to each well and the plates incubated at room temperature for 30 min. Excess sulforhodamine B was removed by washing the plates 5 times with 1% acetic acid. The bound dye was released by the addition of unbuffered Tris-base (200 μL of 10 mM solution) and after a 30 min incubation at room temperature the absorbance at 510 nm was measured (Molecular Devices SpectraMax Plus 384 plate reader). The mean IC50 values and standard deviations were determined from three independent experiments.
For orientation: The SRB assay estimates cell density from bound dye.

Another data set has as its system MIA PaCa-2. Described as above. Format: cell-based. The note with it: MIA PaCa-2 (Human Pancreatic Cancer); 24 hour incubation; mean ± SD. As to the method:
as §2, §3

A further data set concerns MCF-7. The data set is described as above. Format: cell-based. Conditions: MCF7; MCF-7 (Human Breast Cancer); 24 hour incubation; mean ± SD. Here is the method: as §2, §3
The subject of a further data set is WT-MEF. The data set is described as above. Format: cell-based. The note with it: Fibroblast; WT-MEF (Mouse Embryonic Fibroblasts); 24 hour incubation; mean ± SD. As to the method: as §2, §3
For another data set, the system named is HeLa. Described as above. Format: cell-based. The note with it: HeLa (Human Cervical Cancer); 24 hour incubation; mean ± SD. Here is the method:
as §2, §3

In another data set the test system is MDA-MB-436. The data set is described as above. In kind it is cell-based. Conditions: MDA-MB-436 (Human Breast Cancer); 24 hour incubation; mean ± SD. Here is the method:
as §2, §3

In the next data set the test system is SK-MEL-5. Described as above. Format: cell-based. Conditions: SK-MEL-5 (Human Melanoma); 24 hour incubation; mean ± SD. Here is the method:
as §2, §3

In the next data set the test system is H1993. Described as above. The note with it: NCI-H1993; H1993 (Human Lung Cancer); 24 hour incubation; mean ± SD. Format: cell-based. As to the method: as §2, §3
In the next data set the test system is BT-549. The description is as above. Format: cell-based. The note with it: BT-549 (Human Breast Cancer); 24 hour incubation; mean ± SD. As to the method: as §2, §3
The subject of another data set is H460. The description is as above. In kind it is cell-based. Conditions: NCI-H460; H460 (Human Lung Cancer); 24 hour incubation; mean ± SD. As to the method: as §2, §3
Data set [1] relates to adherent cell lines (HOS, H1993, SK-MEL-5, MIA PaCa-2). The data set can be described thus: Adherent cell lines: cell death by AV/PI staining and immunoblots. In kind it is cell-based, Human. The note with it: HOS, H1993, SK-MEL-5, MIA PaCa-2, 10 μM. (Immunoblotting shows a protein as a band on a membrane.)
The test system of the next data set is 4T1 breast cancer. Put plainly: Syngeneic subcutaneous tumor model. Format: in vivo, BALB/c mice. Conditions: 4T1 model; 20 mg/kg IP once daily for 4 days. As to the method: as §1
A short description of data set [2]: Pharmacokinetic profiling in mice. Format: in vivo, C57BL/6 mice. The note with it: 37.5 mg/kg intravenously. As to the method: Pharmacokinetics and Toxicity Profiling in Mice.
All animal studies were performed with prior approval by the University of Illinois at Urbana-Champaign IACUC committee. Eight week old female C57BL/6 mice were used for all pharmacokinetic and toxicity experiments. […]. For toxicity assessment, Raptinal was administered intravenously as a single-dose injection across a dose range of 15-60 mg/kg, and mice were sacrificed 7 days post-injection for evidence of hematologic toxicity (n=3 mice/group).

A short description of another data set: in vitro. The note with it: human, U-937 cells.
In a further data set the test system is MCF10A. Put plainly: Raptinal toxicity in various cell lines, 24 hour IC50. In kind it is cell-based. Conditions: MCF-10A; MCF10A (Human Breast Tissue); 24 hour incubation; mean ± SD.
For data set [3], the system named is cancer cell lines (HL-60, SK-MEL-5, U-937). Put plainly: Initial screens against cancer cell lines. In kind it is cell-based, Human.
A further data set relates to U-937 cells. Format: cell-based, Human. The note with it: 20 minute treatment, dihydroethidium, flow cytometry. As to the method: Measurement of Cellular ROS Production.
U-937 cells (1 mL of 5×10^5 cells/mL) in Hank's buffered salt solution (HBSS) containing 5 mM glucose were treated with DMSO, 2 or 10 μM Raptinal, 10 μM thapsigargin, 100 μM etoposide (1% DMSO final) and incubated in the presence of 5 μM dihydroethidium a 37° C., 5% CO2 incubator for 20 minutes. […]. The levels of ethidium were assessed by flow cytometry. Live cells were analyzed based on gating on the forward and side scatter properties and the geometric mean of ethidium staining was determined using the software FCS Express.
For orientation: A flow cytometer gives signals particle by particle.

For another data set, the system named is caspase-3/-7. The data set can be described thus: Caspase activity assay in cell lysate (Ac-DEVD-AFC). Format: cell-based. The note with it: 10 μM.

As for `O=CC1(C2(C=O)c3ccccc3-c3ccccc32)c2ccccc2-c2ccccc21` [Raptinal, [9,9′]bifluorenyl-9,9′-dicarbaldehyde], the “retardation of tumor mass relative to controls” value in the data set on B16-F10 melanoma came out at 60%. Besides, the “retardation of tumor volume relative to controls” value in the data set on B16-F10 melanoma is given as 60%. The IC50 in the data set on 3T3 worked out at 1 ± 0.2 µM; in the data set on MIA PaCa-2, 1.9 ± 0.8 µM; in the data set with MCF-7, 3.4 ± 0.1 µM; in the data set on WT-MEF it was 2.4 ± 0.7 µM; with HeLa it was 0.6 ± 0.4 µM; with MDA-MB-436 it was 1.1 ± 0.1 µM. Also, the IC50 in the data set with SK-MEL-5 was 0.7 ± 0.1 µM; with H1993, 1.2 ± 0.1 µM; in the data set with BT-549, 1.3 ± 0.4 µM; in the data set on H460 it was 1.1 ± 0.1 µM; in the data set on MCF10A, 3 ± 0.2 µM; in data set [3] (Homo sapiens, HL-60, SK-MEL-5, U-937, 24 hour assays) it was 0.15 to 0.7 µM. Besides, the “speed of cell death induction versus 1541B and staurosporine” value in data set [1] (AV/PI) was “substantially faster than the other agents”. In addition, in data set [1] (immunoblots), the “procaspase-3 activation and PARP-1 cleavage within 2 hours” value is “the only agent capable of activating procaspase-3 and inducing subsequent PARP-1 cleavage within 2 hours”. The same compound came in with a growth inhibition with 4T1 breast cancer of 50%. In addition, the peak plasma concentration amounted to 134.5 ± 2.2 µM in data set [2] and 54.4 ± 0.9 µg/mL in data set [2] (mean ± SD, n=3). Further, in [2] (female, C57BL/6, mouse, in vivo, iv, mean ± SD, n=3, read-out: elimination half-life), the half-life came to 1.53 ± 0.0967 h. The cytotoxicity at 2 h, 10 µM in the data set “in vitro” was ~80%. Further, the “cell death after short treatment and washout” value in data set [3] (cancer cells treated 1 hour, extensive washing to remove compound, read at 24-hour mark) was “significant cell death”. Besides, in the data set with U-937 cells, the “production of reactive oxygen species (superoxide anion radicals)” value is “rapid accumulation of superoxide anion radicals; also recorded: observed”. Moreover, the “induction of caspase-3/-7 activity compared to other apoptosis inducing agents” value with caspase-3/-7 was “faster induction of caspase-3/-7 activity and higher peak levels”.

By IC50 is commonly meant the concentration at which inhibition is half-maximal. A word on the half-life: it is how long it takes for the measured level to halve.
